Counter-ions that a name gives are not always drawn.
Assays:
[1] = tested on: cellular release of amyloid peptide 1-40; assay: Test 4: Inhibition of cellular release of amyloid peptide 1-40; type: cell-based; conditions: Cricetulus griseus, Chinese hamster ovary cells transfected with the gene for amyloid precursor protein, 24 hours with compound, amyloid peptide 1-40 in supernatant, read-out: Bace IC50
Protocol: Test 4: Inhibition of Cellular Release of Amyloid Peptide 1-40
Chinese hamster ovary cells are transfected with the gene for amyloid precursor protein. The cells are plated at a density of 8000 cells/well into 96-well microtiter plates and cultivated for 24 hours in DMEM cell culture medium containing 10% FCS. The test compound is added to the cells at various concentrations, and the cells are cultivated for 24 hours in the presence of the test compound. The supernatants are collected, and the concentration of amyloid peptide 1-40 is determined using state of the art immunoassay techniques, for example sandwich ELISA, homogenous time-resolved fluorescence (HTRF) immunoassay, or electro-chemiluminescence immunoassay. The potency of the compound is calculated from the percentage of inhibition of amyloid peptide release as a function of the test compound concentration.

human BACE-1 = human BACE-1 (Homo sapiens, UniProt P56817); assay: Test 1: Inhibition of human BACE-1; type: biochemical; conditions: recombinant BACE-1, pH 4.5, fluorescence-quenched APP-derived peptide substrate
human BACE-1, sequence (P56817 46-457 limits assumed): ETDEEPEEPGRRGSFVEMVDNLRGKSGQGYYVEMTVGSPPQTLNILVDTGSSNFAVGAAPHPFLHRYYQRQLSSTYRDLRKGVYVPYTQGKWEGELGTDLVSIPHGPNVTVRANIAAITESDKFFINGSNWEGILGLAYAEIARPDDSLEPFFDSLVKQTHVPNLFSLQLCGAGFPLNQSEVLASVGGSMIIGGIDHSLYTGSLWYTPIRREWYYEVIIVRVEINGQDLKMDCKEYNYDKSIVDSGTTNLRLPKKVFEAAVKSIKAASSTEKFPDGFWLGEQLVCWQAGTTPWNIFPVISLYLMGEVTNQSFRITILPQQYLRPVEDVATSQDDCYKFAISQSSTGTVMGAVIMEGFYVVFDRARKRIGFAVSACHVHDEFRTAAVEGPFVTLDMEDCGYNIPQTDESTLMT
Protocol: Test 1: Inhibition of Human BACE-1
IC50 values are calculated from percentage of inhibition of BACE-1 activity as a function of the test compound concentration.

IC50 [1] [nM] | IC50 (human BACE-1) [nM] | Structure (SMILES)
980 | 1300 | CCC1C(N)=NC(C)(c2cccc(NC(=O)c3ccc(Br)cn3)c2)C(=O)N1C (mixture of isomers) [Example 15, 5-Bromo-pyridine-2-carboxylic acid [3-(6-amino-5-ethyl-2,4-dimethyl-3-oxo-2,3,4,5-tetrahydro-pyrazin-2-yl)-phenyl]-amide]
12 | 22 | Cc1cc(OC(F)F)cnc1C(=O)Nc1ccc(F)c([C@]2(C(F)F)CNCC(N)=N2)c1 (single isomer, unassigned) [Example 27]
5.7 | 20 | COc1cnc(C(=O)Nc2ccc(F)c([C@]3(C(F)F)CNCC(N)=N3)c2)c(N)n1 (single isomer, unassigned) [Example 28]
3200 | 4100 | CN1CC(N)=NC(C)(c2cc(NC(=O)c3ccc(Br)cn3)ccc2F)C1=O (centres unmarked) [Example 1, 5-Bromo-pyridine-2-carboxylic acid [3-(6-amino-2,4-dimethyl-3-oxo-2,3,4,5-tetrahydro-pyrazin-2-yl)-4-fluoro-phenyl]-amide]
120 | 180 | CN1CC(N)=NC(C)(c2cc(NC(=O)c3ccc(Br)cn3)ccc2F)C1 (centres unmarked) [Example 2, 5-Bromo-pyridine-2-carboxylic acid [3-(6-amino-2,4-dimethyl-2,3,4,5-tetrahydro-pyrazin-2-yl)-4-fluoro-phenyl]-amide]
260 | 400 | CN1CC(N)=NC(C)(c2cccc(NC(=O)c3ccc(Br)cn3)c2)C1=O (centres unmarked) [Example 3, 5-Bromo-pyridine-2-carboxylic acid [3-(6-amino-2,4-dimethyl-3-oxo-2,3,4,5-tetrahydro-pyrazin-2-yl)-phenyl]-amide]
91 | 95 | CN1CC(C)(c2cc(NC(=O)c3ccc(Br)cn3)ccc2F)N=C(N)C1=O (centres unmarked) [Example 4, 5-Bromo-pyridine-2-carboxylic acid [3-(6-amino-2,4-dimethyl-5-oxo-2,3,4,5-tetrahydro-pyrazin-2-yl)-4-fluoro-phenyl]-amide hydrochloride]
190 |  | CN1CC(C)(c2cc(NC(=O)c3ccc(Cl)cn3)ccc2F)N=C(N)C1=O (centres unmarked) [Example 5, 5-Chloro-pyridine-2-carboxylic acid [3-(6-amino-2,4-dimethyl-5-oxo-2,3,4,5-tetrahydro-pyrazin-2-yl)-4-fluoro-phenyl]-amide hydrochloride]
59 | 51 | CCN1CC(C)(c2cc(NC(=O)c3ccc(Br)cn3)ccc2F)N=C(N)C1=O (centres unmarked) [Example 6, 5-Bromo-pyridine-2-carboxylic acid [3-(6-amino-4-ethyl-2-methyl-5-oxo-2,3,4,5-tetrahydro-pyrazin-2-yl)-4-fluoro-phenyl]-amide hydrochloride]
160 | 68 | CN1CC(C)(c2cc(NC(=O)c3ncc(Cl)cc3Cl)ccc2F)N=C(N)C1=O (centres unmarked) [Example 7, 3,5-Dichloro-pyridine-2-carboxylic acid [3-(6-amino-2,4-dimethyl-5-oxo-2,3,4,5-tetrahydro-pyrazin-2-yl)-4-fluoro-phenyl]-amide hydrochloride]
74 | 21 | CCN1CC(C)(c2cc(NC(=O)c3ncc(Cl)cc3Cl)ccc2F)N=C(N)C1=O (centres unmarked) [Example 8, 3,5-Dichloro-pyridine-2-carboxylic acid [3-(6-amino-4-ethyl-2-methyl-5-oxo-2,3,4,5-tetrahydro-pyrazin-2-yl)-4-fluoro-phenyl]-amide hydrochloride]
37 | 33 | CC(C)N1CC(C)(c2cc(NC(=O)c3ccc(Br)cn3)ccc2F)N=C(N)C1=O (centres unmarked) [Example 9, 5-Bromo-pyridine-2-carboxylic acid [3-(6-amino-4-isopropyl-2-methyl-5-oxo-2,3,4,5-tetrahydro-pyrazin-2-yl)-4-fluoro-phenyl]-amide hydrochloride]
74 | 34 | COCCN1CC(C)(c2cc(NC(=O)c3ncc(Cl)cc3Cl)ccc2F)N=C(N)C1=O (centres unmarked) [Example 10, 3,5-Dichloro-pyridine-2-carboxylic acid {3-[6-amino-4-(2-methoxy-ethyl)-2-methyl-5-oxo-2,3,4,5-tetrahydro-pyrazin-2-yl]-4-fluoro-phenyl}-amide hydrochloride]
40 | 20 | COCCN1CC(C)(c2cc(NC(=O)c3ccc(Br)cn3)ccc2F)N=C(N)C1=O (centres unmarked) [Example 11, 5-Bromo-pyridine-2-carboxylic acid {3-[6-amino-4-(2-methoxy-ethyl)-2-methyl-5-oxo-2,3,4,5-tetrahydro-pyrazin-2-yl]-4-fluoro-phenyl}-amide hydrochloride]
84 | 20 | Cn1cc(N2CC(C)(c3cc(NC(=O)c4ccc(Br)cn4)ccc3F)N=C(N)C2=O)cn1 (centres unmarked) [Example 12, 5-Bromo-pyridine-2-carboxylic acid {3-[6-amino-2-methyl-4-(1-methyl-1H-pyrazol-4-yl)-5-oxo-2,3,4,5-tetrahydro-pyrazin-2-yl]-4-fluoro-phenyl}-amide hydrochloride]
280 | 7 | CC1(c2cc(NC(=O)c3ccc(Br)cn3)ccc2F)CN(c2cccnc2)C(=O)C(N)=N1 (centres unmarked) [Example 13, 5-Bromo-pyridine-2-carboxylic acid [3-(6-amino-2-methyl-5-oxo-4-pyridin-3-yl-2,3,4,5-tetrahydro-pyrazin-2-yl)-4-fluoro-phenyl]-amide hydrochloride]
130 | 63 | CCN1CC(C)(c2cc(NC(=O)c3ccc(C#N)cn3)ccc2F)N=C(N)C1=O (centres unmarked) [Example 14, 5-Cyano-pyridine-2-carboxylic acid [3-(6-amino-4-ethyl-2-methyl-5-oxo-2,3,4,5-tetrahydro-pyrazin-2-yl)-4-fluoro-phenyl]-amide hydrochloride]
6.7 | 30 | NC1=NC(c2cc(NC(=O)c3ccc(Br)cn3)ccc2F)(C(F)F)CNC1 (centres unmarked) [Example 16, 5-Bromo-pyridine-2-carboxylic acid [3-(6-amino-2-difluoromethyl-2,3,4,5-tetrahydro-pyrazin-2-yl)-4-fluoro-phenyl]-amide]
74 | 28 | N#Cc1ccc(C(=O)Nc2ccc(F)c(C3(C(F)F)CNCC(N)=N3)c2)nc1 (centres unmarked) [Example 17, 5-Cyano-pyridine-2-carboxylic acid [3-(6-amino-2-difluoromethyl-2,3,4,5-tetrahydro-pyrazin-2-yl)-4-fluoro-phenyl]-amide]
61 | 21 | N#Cc1ccc(C(=O)Nc2ccc(F)c(C3(C(F)F)CNC(=O)C(N)=N3)c2)nc1 (centres unmarked) [Example 18, 5-Cyano-pyridine-2-carboxylic acid [3-(6-amino-2-difluoromethyl-5-oxo-2,3,4,5-tetrahydro-pyrazin-2-yl)-4-fluoro-phenyl]-amide]
15 | 22 | COC(=O)N1CC(N)=NC(c2cc(NC(=O)c3ccc(Br)cn3)ccc2F)(C(F)F)C1 (centres unmarked) [Example 19, 5-Amino-3-{5-[(5-bromo-pyridine-2-carbonyl)-amino]-2-fluoro-phenyl}-3-difluoromethyl-3,6-dihydro-2H-pyrazine-1-carboxylic acid methyl ester]
57 | 52 | COC(=O)N1CC(N)=NC(c2cc(NC(=O)c3ccc(C#N)cn3)ccc2F)(C(F)F)C1 (centres unmarked) [Example 20, 5-Amino-3-{5-[(5-cyano-pyridine-2-carbonyl)-amino]-2-fluoro-phenyl}-3-difluoromethyl-3,6-dihydro-2H-pyrazine-1-carboxylic acid methyl ester]
31 | 9 | CC(=O)N1CC(N)=NC(c2cc(NC(=O)c3ncc(Br)cc3C)ccc2F)(C(F)F)C1 (centres unmarked) [Example 21, 5-Bromo-3-methyl-pyridine-2-carboxylic acid [3-(4-acetyl-6-amino-2-difluoromethyl-2,3,4,5-tetrahydro-pyrazin-2-yl)-4-fluoro-phenyl]-amide]
21 | 5 | Cc1cc(Br)cnc1C(=O)Nc1ccc(F)c(C2(C(F)F)CN(C(=O)OCC(Cl)Cl)CC(N)=N2)c1 (centres unmarked) [Example 22, 5-Amino-3-{5-[(5-bromo-3-methyl-pyridine-2-carbonyl)-amino]-2-fluoro-phenyl}-3-difluoromethyl-3,6-dihydro-2H-pyrazine-1-carboxylic acid 2,2-dichloro-ethyl ester]
34 | 7 | COCC(=O)N1CC(N)=NC(c2cc(NC(=O)c3ncc(Br)cc3C)ccc2F)(C(F)F)C1 (centres unmarked) [Example 23, 5-Bromo-3-methyl-pyridine-2-carboxylic acid {3-[6-amino-2-difluoromethyl-4-(2-methoxy-acetyl)-2,3,4,5-tetrahydro-pyrazin-2-yl]-4-fluoro-phenyl}-amide]
28 | 11 | Cc1cc(Br)cnc1C(=O)Nc1ccc(F)c(C2(C(F)F)CN(C(=O)C3CC3)CC(N)=N2)c1 (centres unmarked) [Example 24, 5-Bromo-3-methyl-pyridine-2-carboxylic acid [3-(6-amino-4-cyclopropanecarbonyl-2-difluoromethyl-2,3,4,5-tetrahydro-pyrazin-2-yl)-4-fluoro-phenyl]-amide]
10 | 28 | Cc1cc(Br)cnc1C(=O)Nc1ccc(F)c(C2(C(F)F)CNCC(N)=N2)c1 (centres unmarked) [Example 25, 5-Bromo-3-methyl-pyridine-2-carboxylic acid [3-(6-amino-2-difluoromethyl-2,3,4,5-tetrahydro-pyrazin-2-yl)-4-fluoro-phenyl]-amide]

From patent US20150322038A1, “PYRAZINE DERIVATIVES AND THEIR USE IN THE TREATMENT OF NEUROLOGICAL DISORDERS” (NOVARTIS AG, priority 2009, published 2015)
